# Assay results published in patent publication US20220280661A1, “GLUCOCORTICOID RECEPTOR RADIOLIGANDS AND METHODS FOR THEIR PREPARATION AND USE” (The Regents of the University of California, priority 2019, published 2022).
# Assays:
# [1] = Plasma protein binding, rapid equilibrium dialysis, human plasma; assay type: in vitro ADME; details: human, plasma, pH 7.4, human plasma
# Procedure: (§1) Plasma Protein Binding Studies. The rapid equilibrium dialysis (RED) device inserts along with a Teflon base plate (Pierce, Rockford, Ill.) were used for the binding studies. The pH of the human or mouse plasma was adjusted to 7.4 prior to the experiment. DMSO stocks (1 mM) were spiked into the plasma to make a final concentration of 2 μM. The spiked plasma solutions (300 μL) were placed into the sample chamber (indicated by the red ring); and 500 μL of PBS buffer, pH 7.4, was placed into the adjacent chamber. The plate was incubated at 37° C. on an orbital shaker (250 rpm) for 4 hours.
# (§2) After 4 hours, from the RED plate, aliquots (100 μL) were removed from each side of the insert (plasma and buffer) and dispensed into the 96-well plate. Subsequently, 100 μL of blank plasma was added to the buffer samples and 100 μL of blank buffer was added to all the collected plasma samples. 300 μL of quench solution (50% acetonitrile, 50% methanol, and 0.05% formic acid, warmed up at 37° C.) containing internal standards was added to each well. Plates were sealed, vortexed, and centrifuged at 4° C. for 15 minutes at 4000 rpm. The supernatant was transferred to fresh plates for LC/MS/MS analysis. The sample were analyzed on LC/MS/MS using an AB Sciex API 4000 instrument, coupled to a Shimadzu LC-20AD LC Pump system. Analytical samples were separated using a Waters Atlantis T3 dC18 reverse phase HPLC column (20 mm×2.1 mm) at a flow rate of 0.5 mL/min. The mobile phase consisted of 0.1% formic acid in water (solvent A) and 0.1% formic acid in acetonitrile (solvent B).
# (§3) The percentage of test compound bound to protein was calculated by the following equations:
# (§4) % Free=(Concentration in buffer chamber/Concentration in plasma chamber)×100%
# [2] = tested on: plasma protein; assay: as above; assay type: in vitro ADME
# Procedure: as §1, §2, §3, §4
# [3] = Plasma protein binding, rapid equilibrium dialysis, mouse plasma; assay type: in vitro ADME; details: mouse, plasma, pH 7.4, mouse plasma
# Procedure: as §1, §2, §3, §4
# [4] = tested on: plasma protein; assay: as above; assay type: in vitro ADME
# Procedure: as §1, §2, §3, §4
# [5] = tested on: GR; assay: 18F-YJH08 PET/biodistribution after JG231 treatment; assay type: in vivo, mouse; details: once daily for 3 days via intraperitoneal injection
# Procedure: At right is shown a maximum intensity projection of supraspinal BAT and muscle from a representative mouse in either treatment arm. Mice (n=5/treatment arm) were treated with JG231 or vehicle once daily for 3 days via intraperitoneal injection.
# The biodistribution data are representative of two independent experiments.
# The limitations of broad-spectrum GR modulators like corticosteroids are well known, and the severe side effects associated with their long term use (e.g. diabetes mellitus, osteoporosis) motivated drug development campaigns starting in the 1990s to identify safer GR modulators that selectively modulate GR activity (Sundahl, et al. Pharmacol. Ther. 2015, 152, 28-41). […] To test this concept, the biodistribution of ^18F-YJH08 was evaluated in mice after treatment with JG231 (FIGS. 10A and 10B). […] Using the same treatment strategy, mice were subjected to 4 mg/kg/day for three days intraperitoneally, and subsequently treated with ^18F-YJH08. […] In these regions, it appeared that JG231 suppressed radiotracer binding, perhaps indicative of GR degradation. […] Immunoblot studies corroborated the biodistribution data, showing approximately ˜50% reduction in GR expression levels due to JG231 treatment in brown fat, and no change in GR levels from other tissues, for example, kidneys, liver, and muscle (FIG. 10E). […]
# [6] = tested on: GR; assay: Immunoblot of GR in mouse tissues after JG231 treatment; assay type: in vivo; details: 4 mg/kg/day for three days intraperitoneally
# Source text: GR levels were not impacted in liver, kidneys, or muscle, as predicted based on the radiotracer biodistribution data.
# The limitations of broad-spectrum GR modulators like corticosteroids are well known, and the severe side effects associated with their long term use (e.g. diabetes mellitus, osteoporosis) motivated drug development campaigns starting in the 1990s to identify safer GR modulators that selectively modulate GR activity (Sundahl, et al. Pharmacol. Ther. 2015, 152, 28-41). […] To test this concept, the biodistribution of ^18F-YJH08 was evaluated in mice after treatment with JG231 (FIGS. 10A and 10B). […] Using the same treatment strategy, mice were subjected to 4 mg/kg/day for three days intraperitoneally, and subsequently treated with ^18F-YJH08. […] In these regions, it appeared that JG231 suppressed radiotracer binding, perhaps indicative of GR degradation. […] Immunoblot studies corroborated the biodistribution data, showing approximately ˜50% reduction in GR expression levels due to JG231 treatment in brown fat, and no change in GR levels from other tissues, for example, kidneys, liver, and muscle (FIG. 10E). This is believed to be the first example of tissue specific GR degradation.
# [7] = tested on: GR; assay: Immunoblot of GR in breast cancer cell lines treated with JG231; assay type: cell-based, human; details: 24 hours
# Procedure: Cells were treated with the indicated dose for 24 hours.
# [8] = duplicate, read-out: % Bound (converted)
# [9] = read-out: % Bound Average (converted)
"fraction unbound at 4 h, 2 μM [1, 8]","fraction unbound at 4 h, 2 μM [1, 9]","% Bound ([2]; human plasma, 2 μM, duplicate)","recovery at 4 h, 2 μM ([2]; plasma (rapid equilibrium dialysis device), pH 7.4, human plasma)","fraction unbound at 4 h, 2 μM [3, 8]","fraction unbound at 4 h, 2 μM [3, 9]","% Bound ([4]; mouse plasma, 2 μM, duplicate)","recovery at 4 h, 2 μM ([4]; plasma (rapid equilibrium dialysis device), pH 7.4, mouse plasma)",Compound,effect on ^18F-YJH08 tissue uptake [5],"GR levels in kidneys, liver, and muscle [6]",reduction in GR expression levels in brown fat [6],"GR degradation (immunoblot), MCF7 ([7]; MCF7 cells)","GR degradation (immunoblot), MDA MB 231 ([7]; MDA MB 231 cells)"
0.354,0.354,64.56%,104%,0.223,0.22,78.25%,106%,CC(C)NCC(O)COc1cccc2ccccc12 (stereo not shown) [Propranolol],,,,,
,,,,,,,,"CCn1c(=O)/c(=C2\Sc3cc(Cl)ccc3N2C)s/c1=C\c1scc[n+]1Cc1ccc(Br)s1.[Cl-] [JG231, 3-((5-bromothiophen-2-yl)methyl)-2-((Z)-((E)-5-(6-chloro-3-methylbenzo[d]thiazol-2(3H)-ylidene)-3-ethyl-4-oxothiazolidin-2-ylidene)methyl)thiazol-3-ium chloride]",suppressed radiotracer uptake exclusively in the supraspinal brown fat pad,no change,~50%,degrades GR,degrades GR
